The source of these data is patent US8785460B2, “Tricyclic compounds and use thereof” (Takeda Pharmaceutical Company Limited, priority 2008, dated 2014).

Structures are written as SMILES.

In one data set the target is T1, human CRF1 receptor (Homo sapiens, UniProt P34998).
T1 construct: expressed in transfected cells; host or cells: CHO cells (membrane fraction)
T1 sequence (P34998 24-415): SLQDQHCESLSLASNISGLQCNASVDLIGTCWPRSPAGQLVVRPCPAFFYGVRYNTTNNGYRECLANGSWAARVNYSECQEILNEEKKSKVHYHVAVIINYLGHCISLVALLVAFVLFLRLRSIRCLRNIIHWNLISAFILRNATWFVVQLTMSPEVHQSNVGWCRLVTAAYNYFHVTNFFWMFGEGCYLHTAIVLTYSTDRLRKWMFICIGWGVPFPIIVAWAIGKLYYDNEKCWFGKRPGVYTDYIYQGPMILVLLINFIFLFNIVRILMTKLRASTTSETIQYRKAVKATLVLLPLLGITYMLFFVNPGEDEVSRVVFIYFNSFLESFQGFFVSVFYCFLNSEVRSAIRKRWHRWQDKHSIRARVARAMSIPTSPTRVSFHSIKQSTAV
Kind of data set: Measurement of CRF Binding Inhibitory Rate (receptor binding experiment with 125I-CRF). To be noted: human CRF1 receptor expressing CHO cellular membrane fraction, 50 pM 125I-CRF, room temperature 1.5 hr, 0.05 nM to 10 μM of compound; read-out: IC50 values (CRF binding inhibition).

Take `COc1ccc(N2CCCn3c2nc2c(Cl)ccc(C(OCC(F)F)C4CC4)c23)c(C)n1` (centres unmarked) [Example 278, 9-Chloro-6-[cyclopropyl(2,2-difluoroethoxy)methyl]-1-(6-methoxy-2-methylpyridin-3-yl)-1,2,3,4-tetrahydropyrimido[1,2-a]benzimidazole]: the melting point – broadly, the temperature of the solid-liquid transition – lay in the range of 124 to 126 °C. Further, the half-inhibitory concentration (IC50) (in general, the concentration needed to halve the response being measured) on human CRF1 receptor was under 1000 nM.

The molecule `COC(c1ccc(Cl)c2nc3n(c12)CCCN3c1ccc(Cl)cc1Cl)(C1CC1)C1CC1` [Example 111, 9-Chloro-1-(2,4-dichlorophenyl)-6-[dicyclopropyl(methoxy)methyl]-1,2,3,4-tetrahydropyrimido[1,2-a]benzimidazole] registered a melting point of 99 to 100 °C. Also, the 50% inhibitory concentration (IC50) on human CRF1 receptor is under 1000 nM.

Molecule `Cc1nc(OC(F)F)ccc1N1CCCn2c1nc1c(Cl)ccc(C(OC(F)F)C(F)(F)F)c12` (centres unmarked) [Example 290, 9-Chloro-1-[6-(difluoromethoxy)-2-methylpyridin-3-yl]-6-[1-(difluoromethoxy)-2,2,2-trifluoroethyl]-1,2,3,4-tetrahydropyrimido[1,2-a]benzimidazole] yielded a melting point of 145 to 148 °C. In addition, at human CRF1 receptor, the IC50 is under 1000 nM.

The molecule `COc1nc(C)c(N2CCCn3c2nc2c(Cl)ccc(C(O)(C4CC4)C4CC4)c23)c(C)n1` [Example 188, [9-Chloro-1-(2-methoxy-4,6-dimethylpyrimidin-5-yl)-1,2,3,4-tetrahydropyrimido[1,2-a]benzimidazol-6-yl](dicyclopropyl)methanol] showed a melting point of 220 to 221 °C. Moreover, the IC50 on human CRF1 receptor is under 1000 nM.

Turning to `CCOC(CC)c1ccc(Cl)c2nc3n(c12)CCCN3c1ccc(OC)nc1C` (centres unmarked) [Example 269, 9-Chloro-6-(1-ethoxypropyl)-1-(6-methoxy-2-methylpyridin-3-yl)-1,2,3,4-tetrahydropyrimido[1,2-a]benzimidazole], the melting point was 174 to 176 °C. The half-maximal inhibitory concentration (IC50) on human CRF1 receptor was under 1000 nM.

Regarding `CCCOc1ccc(N2CCCn3c2nc2c(Cl)ccc(C(OC(F)F)C(F)(F)F)c23)c(C)n1` (centres unmarked) [Example 289, 9-Chloro-6-[1-(difluoromethoxy)-2,2,2-trifluoroethyl]-1-(2-methyl-6-propoxypyridin-3-yl)-1,2,3,4-tetrahydropyrimido[1,2-a]benzimidazole], the melting point lay within 156 to 158 °C. Moreover, the IC50 on human CRF1 receptor was under 1000 nM.

`CCC(OC)c1cccc2nc3n(c12)CCCN3c1ccc(Cl)cc1Cl` (centres unmarked) [Example 93, 1-(2,4-Dichlorophenyl)-6-(1-methoxypropyl)-1,2,3,4-tetrahydropyrimido[1,2-a]benzimidazole] returned a melting point of 151 to 153 °C. For the same molecule, the IC50 on human CRF1 receptor is under 1000 nM.

The molecule `CCC(CC)(OC)c1ccc(Cl)c2nc3n(c12)CCCN3c1ccc(Cl)cc1Cl` [Example 110, 9-Chloro-1-(2,4-dichlorophenyl)-6-(1-ethyl-1-methoxypropyl)-1,2,3,4-tetrahydropyrimido[1,2-a]benzimidazole] gave a melting point of 124 to 125 °C. For the same molecule, on human CRF1 receptor, the 50% inhibitory concentration (IC50) was under 1000 nM.

In turn, `CCC(NCC(F)(F)F)c1ccc(Cl)c2nc3n(c12)CCCN3c1ccc(Cl)cc1Cl` (centres unmarked) [Example 459, 1-[9-Chloro-1-(2,4-dichlorophenyl)-1,2,3,4-tetrahydropyrimido[1,2-a]benzimidazol-6-yl]-N-(2,2,2-trifluoroethyl)propan-1-amine] returned a melting point of 133 to 135 °C. The 50% inhibitory concentration (IC50) at human CRF1 receptor is under 1000 nM.

In turn, `CC/C(=N\OC(F)F)c1ccc(Cl)c2nc3n(c12)CCCN3c1c(C)nc(OC)nc1C` [Example 193, (1E)-1-[9-Chloro-1-(2-methoxy-4,6-dimethylpyrimidin-5-yl)-1,2,3,4-tetrahydropyrimido[1,2-a]benzimidazol-6-yl]propan-1-one O-(difluoromethyl)oxime] came in with a melting point of 199 to 200 °C. On human CRF1 receptor, the IC50 is under 1000 nM.

`COc1ccc(N2CCCn3c2nc2c(Cl)ccc(C(OC)C(F)(F)F)c23)c(C)n1` (centres unmarked) [Example 280, 9-Chloro-1-(6-methoxy-2-methylpyridin-3-yl)-6-(2,2,2-trifluoro-1-methoxyethyl)-1,2,3,4-tetrahydropyrimido[1,2-a]benzimidazole] returned a melting point of 144 to 146 °C. Also, on human CRF1 receptor, the IC50 is under 1000 nM.

`CCN(CC)c1cc(F)cc2nc3n(c12)CCCN3c1ccc(Cl)cc1Cl` [Example 335, 1-(2,4-Dichlorophenyl)-N,N-diethyl-8-fluoro-1,2,3,4-tetrahydropyrimido[1,2-a]benzimidazol-6-amine] returned a melting point of 142 to 145 °C. Also, the 50% inhibitory concentration (IC50) on human CRF1 receptor was under 1000 nM.

Turning to `CCC(O)c1ccc(Cl)c2nc3n(c12)CCCN3c1c(Cl)cc(Cl)cc1Cl` (centres unmarked) [Example 391, 1-[9-Chloro-1-(2,4,6-trichlorophenyl)-1,2,3,4-tetrahydropyrimido[1,2-a]benzimidazol-6-yl]propan-1-ol], the melting point fell in the range of 213 to 214 °C. The IC50 at human CRF1 receptor was under 1000 nM.

With `CCC(CC(N)=O)c1cccc2nc3n(c12)CCCN3c1ccc(Cl)cc1Cl` (centres unmarked) [Example 205, 3-[1-(2,4-Dichlorophenyl)-1,2,3,4-tetrahydropyrimido[1,2-a]benzimidazol-6-yl]pentanamide], the melting point lay in the range of 132 to 133 °C. For the same molecule, the IC50 on human CRF1 receptor is under 1000 nM.

With `Cc1cc(Cl)cc(Cl)c1N1CCn2c1nc1c(Cl)ccc(C(O)(C3CC3)C3CC3)c12` [Example 426, [8-Chloro-1-(2,4-dichloro-6-methylphenyl)-2,3-dihydro-1H-imidazo[1,2-a]benzimidazol-5-yl](dicyclopropyl)methanol], the melting point is 193 to 196 °C. Besides, the IC50 at human CRF1 receptor was under 1000 nM.

Regarding `CCC(NC(=O)OC)c1ccc(Cl)c2nc3n(c12)CCCN3c1ccc(Cl)cc1Cl` (centres unmarked) [Example 446, Methyl {1-[9-chloro-1-(2,4-dichlorophenyl)-1,2,3,4-tetrahydropyrimido[1,2-a]benzimidazol-6-yl]propyl}carbamate], the melting point was 201 to 203 °C. Also, the half-inhibitory concentration (IC50) at human CRF1 receptor was under 1000 nM.

Molecule `Cc1cc(Cl)cc(Cl)c1N1CCCn2c1nc1c(Cl)ccc(C(O)(C3CC3)C3CC3)c12` [Example 138, [9-Chloro-1-(2,4-dichloro-6-methylphenyl)-1,2,3,4-tetrahydropyrimido[1,2-a]benzimidazol-6-yl](dicyclopropyl)methanol] gave a melting point of 210 to 212 °C. Besides, at human CRF1 receptor, the half-maximal inhibitory concentration (IC50) was under 1000 nM.

`CCC(NC(=O)OC)c1ccc(Cl)c2nc3n(c12)CCCN3c1c(Cl)cc(Cl)cc1Cl` (centres unmarked) [Example 410, Methyl {1-[9-chloro-1-(2,4,6-trichlorophenyl)-1,2,3,4-tetrahydropyrimido[1,2-a]benzimidazol-6-yl]propyl}carbamate]: the melting point lay in the range of 231 to 233 °C. In addition, the 50% inhibitory concentration (IC50) on human CRF1 receptor is under 1000 nM.

Turning to `CCC(OC(=O)C1CC1)c1ccc(Cl)c2nc3n(c12)CCCN3c1ncc(Cl)cc1Cl` (centres unmarked) [Example 172, 1-[9-Chloro-1-(3,5-dichloropyridin-2-yl)-1,2,3,4-tetrahydropyrimido[1,2-a]benzimidazol-6-yl]propyl cyclopropanecarboxylate], the melting point is 154 to 155 °C. Also, the IC50 at human CRF1 receptor is under 1000 nM.
